#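 Growth conditions: 96-well plates. Treatment: test compound, 48 hours, 5 concentrations. Analysis: linear interpolation between bracketing concentrations; unreached endpoints set to highest concentration. Definition used: TGI = concentration required for complete inhibition of growth.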
# What was measured:
# Test in all cases: NCI tumour cell line growth inhibition, 48 h
# A549 NSCLC = test system: A549 NSCLC
# HS 578T breast = test system: HS 578T breast
# SF-539 CNS = test system: SF-539 CNS
# UO-31 renal = test system: UO-31 renal
# HL-60(TB) leukemia = test system: HL-60(TB) leukemia
# CAKI-1 renal = test system: CAKI-1 renal
# SN12C renal = test system: SN12C renal
# MOLT-4 leukemia = test system: MOLT-4 leukemia
# HCT-15 colon = test system: HCT-15 colon
# LOX IMVI melanoma = test system: LOX IMVI melanoma
# KM12 colon = test system: KM12 colon
# UACC-257 melanoma = test system: UACC-257 melanoma
# NCI-H23 lung = test system: NCI-H23 lung
# COLO 205 colon = test system: COLO 205 colon
# OVCAR-4 ovarian = test system: OVCAR-4 ovarian
# UACC-62 melanoma = test system: UACC-62 melanoma
# M14 melanoma = test system: M14 melanoma
# HCT-116 colon = test system: HCT-116 colon
# DU-145 prostate = test system: DU-145 prostate
# IGROV1 ovarian = test system: IGROV1 ovarian
# RPMI-8226 leukemia = test system: RPMI-8226 leukemia
# HOP-92 NSCLC = test system: HOP-92 NSCLC
# MDA-MB-231 breast = test system: MDA-MB-231 breast
# SK-MEL-5 melanoma = test system: SK-MEL-5 melanoma
# RXF 393 renal = test system: RXF 393 renal
# MALME-3M melanoma = test system: MALME-3M melanoma
# T-47D breast = test system: T-47D breast
# CCRF-CEM leukemia = test system: CCRF-CEM leukemia
# NCI/ADR-RES ovarian = test system: NCI/ADR-RES ovarian
# OVCAR-3 ovarian = test system: OVCAR-3 ovarian
# SK-MEL-2 melanoma = test system: SK-MEL-2 melanoma
# HT29 colon = test system: HT29 colon
# BT-549 breast = test system: BT-549 breast
# EKVX NSCLC = test system: EKVX NSCLC
# SNB-19 CNS = test system: SNB-19 CNS
# PC-3 prostate = test system: PC-3 prostate
# SW-620 colon = test system: SW-620 colon
# HCC-2998 colon = test system: HCC-2998 colon
# OVCAR-5 ovarian = test system: OVCAR-5 ovarian
# MDA-MB-435 = test system: MDA-MB-435
# SF-268 CNS = test system: SF-268 CNS
# HOP-62 NSCLC = test system: HOP-62 NSCLC
# U251 CNS = test system: U251 CNS
# 786-0 renal = test system: 786-0 renal
# SR leukemia = test system: SR leukemia
# TK-10 renal = test system: TK-10 renal
# OVCAR-8 ovarian = test system: OVCAR-8 ovarian
# K-562 leukemia = test system: K-562 leukemia
# NCI-H226 lung = test system: NCI-H226 lung
# MCF7 breast = test system: MCF7 breast
# ACHN renal = test system: ACHN renal
# MDA-N = test system: MDA-N
# SK-MEL-28 melanoma = test system: SK-MEL-28 melanoma
# SF-295 CNS = test system: SF-295 CNS
# NCI-H460 lung = test system: NCI-H460 lung
# A498 renal = test system: A498 renal
# SK-OV-3 ovarian = test system: SK-OV-3 ovarian
# NCI-H522 lung = test system: NCI-H522 lung
# SNB-75 CNS = test system: SNB-75 CNS
# XF 498 CNS = test system: XF 498 CNS
# LXFL 529 NSCLC = test system: LXFL 529 NSCLC
# M19-MEL melanoma = test system: M19-MEL melanoma
# KM20L2 colon = test system: KM20L2 colon
# DMS 114 small cell lung = test system: DMS 114 small cell lung
# DLD-1 colon = test system: DLD-1 colon
compound,measurement,setting,value
CC(C)(C)c1cc(C(=O)/C=C/c2ccc3c(c2)OCO3)cc(C(C)(C)C)c1O,TGI,A549 NSCLC,> 86.6 µM
same,TGI,HS 578T breast,> 27.1 µM
same,TGI,SF-539 CNS,20 µM
same,TGI,UO-31 renal,> 81 µM
same,TGI,HL-60(TB) leukemia,13.9 µM
same,TGI,CAKI-1 renal,> 100 µM
same,TGI,SN12C renal,76.4 µM
same,TGI,MOLT-4 leukemia,> 26.6 µM
same,TGI,HCT-15 colon,33.9 µM
same,TGI,LOX IMVI melanoma,> 55.8 µM
same,TGI,KM12 colon,22.7 µM
same,TGI,UACC-257 melanoma,22.1 µM
same,TGI,NCI-H23 lung,> 86.4 µM
same,TGI,COLO 205 colon,13.2 µM
same,TGI,OVCAR-4 ovarian,78.7 µM
same,TGI,UACC-62 melanoma,> 45.5 µM
same,TGI,M14 melanoma,65.3 µM
same,TGI,HCT-116 colon,24.5 µM
same,TGI,DU-145 prostate,> 58 µM
same,TGI,IGROV1 ovarian,> 100 µM
same,TGI,RPMI-8226 leukemia,16.9 µM
same,TGI,HOP-92 NSCLC,> 100 µM
same,TGI,MDA-MB-231 breast,37.7 µM
same,TGI,SK-MEL-5 melanoma,16.6 µM
same,TGI,RXF 393 renal,7.58 µM
same,TGI,MALME-3M melanoma,> 53.4 µM
same,TGI,T-47D breast,23.8 µM
same,TGI,CCRF-CEM leukemia,16.3 µM
same,TGI,NCI/ADR-RES ovarian,16.8 µM
same,TGI,OVCAR-3 ovarian,23 µM
same,TGI,SK-MEL-2 melanoma,10.4 µM
same,TGI,HT29 colon,28 µM
same,TGI,BT-549 breast,27.2 µM
same,TGI,EKVX NSCLC,> 100 µM
same,TGI,SNB-19 CNS,> 70.2 µM
same,TGI,PC-3 prostate,21.8 µM
same,TGI,SW-620 colon,35.8 µM
same,TGI,HCC-2998 colon,3.74 µM
same,TGI,OVCAR-5 ovarian,> 76.9 µM
same,TGI,MDA-MB-435,7.04 µM
same,TGI,SF-268 CNS,> 41.6 µM
same,TGI,HOP-62 NSCLC,> 100 µM
same,TGI,U251 CNS,19.3 µM
same,TGI,786-0 renal,21 µM
same,TGI,SR leukemia,10 µM
same,TGI,TK-10 renal,58.1 µM
same,TGI,OVCAR-8 ovarian,> 100 µM
same,TGI,K-562 leukemia,> 39.1 µM
same,TGI,NCI-H226 lung,> 80.6 µM
same,TGI,MCF7 breast,> 100 µM
same,TGI,ACHN renal,> 100 µM
same,TGI,MDA-N,5.53 µM
same,TGI,SK-MEL-28 melanoma,> 100 µM
same,TGI,SF-295 CNS,> 31.2 µM
same,TGI,NCI-H460 lung,15.7 µM
same,TGI,A498 renal,> 56.4 µM
same,TGI,SK-OV-3 ovarian,> 100 µM
same,TGI,NCI-H522 lung,66 µM
same,TGI,SNB-75 CNS,15.4 µM
O=C(Nc1noc(-c2ccccc2)n1)c1ccccc1CNc1noc(-c2ccccc2)n1,TGI,A549 NSCLC,> 100 µM
same,TGI,HS 578T breast,> 100 µM
same,TGI,SF-539 CNS,> 100 µM
same,TGI,UO-31 renal,> 100 µM
same,TGI,HL-60(TB) leukemia,> 100 µM
same,TGI,CAKI-1 renal,> 100 µM
same,TGI,SN12C renal,> 100 µM
same,TGI,MOLT-4 leukemia,> 100 µM
same,TGI,HCT-15 colon,> 100 µM
same,TGI,LOX IMVI melanoma,> 100 µM
same,TGI,KM12 colon,> 100 µM
same,TGI,UACC-257 melanoma,> 100 µM
same,TGI,NCI-H23 lung,> 100 µM
same,TGI,COLO 205 colon,> 100 µM
same,TGI,OVCAR-4 ovarian,> 100 µM
same,TGI,UACC-62 melanoma,> 100 µM
same,TGI,M14 melanoma,> 100 µM
same,TGI,HCT-116 colon,> 100 µM
same,TGI,DU-145 prostate,> 100 µM
same,TGI,IGROV1 ovarian,> 100 µM
same,TGI,RPMI-8226 leukemia,> 100 µM
same,TGI,HOP-92 NSCLC,> 100 µM
same,TGI,MDA-MB-231 breast,> 100 µM
same,TGI,SK-MEL-5 melanoma,> 100 µM
same,TGI,RXF 393 renal,> 100 µM
same,TGI,MALME-3M melanoma,> 100 µM
same,TGI,T-47D breast,> 100 µM
same,TGI,CCRF-CEM leukemia,> 100 µM
same,TGI,NCI/ADR-RES ovarian,> 100 µM
same,TGI,OVCAR-3 ovarian,> 100 µM
same,TGI,HT29 colon,> 100 µM
same,TGI,BT-549 breast,> 100 µM
same,TGI,EKVX NSCLC,> 100 µM
same,TGI,SNB-19 CNS,> 100 µM
same,TGI,PC-3 prostate,> 100 µM
same,TGI,SW-620 colon,> 100 µM
same,TGI,HCC-2998 colon,> 100 µM
same,TGI,OVCAR-5 ovarian,> 100 µM
same,TGI,MDA-MB-435,> 100 µM
same,TGI,SF-268 CNS,> 100 µM
same,TGI,HOP-62 NSCLC,> 100 µM
same,TGI,U251 CNS,> 100 µM
same,TGI,786-0 renal,> 100 µM
same,TGI,SR leukemia,> 100 µM
same,TGI,TK-10 renal,> 100 µM
same,TGI,OVCAR-8 ovarian,> 100 µM
same,TGI,K-562 leukemia,> 100 µM
same,TGI,NCI-H226 lung,> 100 µM
same,TGI,MCF7 breast,> 100 µM
same,TGI,ACHN renal,> 100 µM
same,TGI,MDA-N,> 100 µM
same,TGI,SK-MEL-28 melanoma,> 100 µM
same,TGI,SF-295 CNS,> 100 µM
same,TGI,NCI-H460 lung,> 100 µM
same,TGI,A498 renal,> 100 µM
same,TGI,SK-OV-3 ovarian,> 100 µM
same,TGI,NCI-H522 lung,> 100 µM
same,TGI,SNB-75 CNS,> 100 µM
NC(=S)NN/C=C(\C=Nc1ccccc1)[N+](=O)[O-],TGI,A549 NSCLC,> 100 µM
same,TGI,SF-539 CNS,> 100 µM
same,TGI,HL-60(TB) leukemia,> 100 µM
same,TGI,CAKI-1 renal,> 100 µM
same,TGI,SN12C renal,> 100 µM
same,TGI,HCT-15 colon,> 100 µM
same,TGI,LOX IMVI melanoma,> 100 µM
same,TGI,UACC-257 melanoma,> 100 µM
same,TGI,NCI-H23 lung,> 100 µM
same,TGI,COLO 205 colon,> 100 µM
same,TGI,OVCAR-4 ovarian,> 100 µM
same,TGI,UACC-62 melanoma,> 100 µM
same,TGI,M14 melanoma,> 100 µM
same,TGI,HCT-116 colon,> 100 µM
same,TGI,IGROV1 ovarian,> 100 µM
same,TGI,RPMI-8226 leukemia,> 100 µM
same,TGI,HOP-92 NSCLC,> 100 µM
same,TGI,RXF 393 renal,> 100 µM
same,TGI,MALME-3M melanoma,> 100 µM
same,TGI,XF 498 CNS,> 100 µM
same,TGI,CCRF-CEM leukemia,> 100 µM
same,TGI,OVCAR-3 ovarian,> 100 µM
same,TGI,LXFL 529 NSCLC,> 100 µM
same,TGI,M19-MEL melanoma,> 100 µM
same,TGI,KM20L2 colon,> 100 µM
same,TGI,SK-MEL-2 melanoma,> 100 µM
same,TGI,HT29 colon,> 100 µM
same,TGI,EKVX NSCLC,> 100 µM
same,TGI,SNB-19 CNS,> 100 µM
same,TGI,DMS 114 small cell lung,> 100 µM
same,TGI,SW-620 colon,> 100 µM
same,TGI,OVCAR-5 ovarian,> 100 µM
same,TGI,SF-268 CNS,> 100 µM
same,TGI,HOP-62 NSCLC,> 100 µM
same,TGI,786-0 renal,> 100 µM
same,TGI,TK-10 renal,> 100 µM
same,TGI,OVCAR-8 ovarian,> 100 µM
same,TGI,K-562 leukemia,> 100 µM
same,TGI,NCI-H226 lung,> 100 µM
same,TGI,ACHN renal,> 100 µM
same,TGI,SK-MEL-28 melanoma,> 100 µM
same,TGI,SF-295 CNS,> 100 µM
same,TGI,DLD-1 colon,> 100 µM
same,TGI,SK-OV-3 ovarian,> 100 µM
same,TGI,NCI-H522 lung,> 100 µM
same,TGI,SNB-75 CNS,> 100 µM

# — PubChem BioAssay (NCI)
